In patent US20240409585A1, “MACROCYCLIC IMMUNOMODULATORS” (priority 2021, published 2024):
Bridge positions count the residues as written; N and C are the ends. Square brackets hold non-standard residues; d marks the D form. Peptide text beside a SMILES is read from it. Bip = N[C@@H](Cc1ccc(-c2ccccc2)cc1)C(=O)O; hTyr = N[C@@H](CCc1ccc(O)cc1)C(=O)O; mTyr = N[C@@H](Cc1cccc(O)c1)C(=O)O; h4Pal = N[C@@H](CCc1ccncc1)C(=O)O; hArg = N=C(N)NCCCC[C@H](N)C(=O)O; hPhe = N[C@@H](CCc1ccccc1)C(=O)O; Cit = NC(=O)NCCC[C@H](N)C(=O)O; NMeA = CN[C@@H](C)C(=O)O; Orn = NCCC[C@H](N)C(=O)O; Dab = NCC[C@H](N)C(=O)O; Dap = NC[C@H](N)C(=O)O

Each molecule was assayed against T1, PE-labeled human PD-L1-Ig binding to Jurkat cell line over-expressing human PD-1 (Jurkat-PD-1) (Homo sapiens, UniProt Q15116) (assay: Jurkat-PD-1 Cell Binding High-Content Screening Assay (CBA): Method 1). Conditions: Jurkat-hPD-1 cells, PE-labeled PD-L1-Ig 20 nM final; read-out: Jurkat HPDL1 PD1 IC50 (uM) (Method 1).
T1 construct: expressed in transfected cells; host or cells: Jurkat
T1 sequence (Q15116 25-288): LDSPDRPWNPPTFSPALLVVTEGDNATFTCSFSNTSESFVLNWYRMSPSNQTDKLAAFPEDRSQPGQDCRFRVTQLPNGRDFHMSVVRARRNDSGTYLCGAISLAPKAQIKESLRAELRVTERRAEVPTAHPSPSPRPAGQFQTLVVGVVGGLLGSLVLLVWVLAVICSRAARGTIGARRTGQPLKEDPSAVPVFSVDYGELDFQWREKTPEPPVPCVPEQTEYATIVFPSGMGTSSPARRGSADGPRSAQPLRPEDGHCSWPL

IC50 | SMILES
0.01 µM | CC(C)C[C@@H]1NC(=O)[C@H](CCN)NC(=O)[C@@H](CC(C)C)NC(=O)[C@H](C)N(C)C(=O)[C@H](CCCNC(N)=O)NC(=O)[C@H](Cc2ccc(-c3ccccc3)cc2)NC(=O)[C@H](C(C)C)NC(=O)[C@H](Cc2c[nH]c3ccccc23)NC(=O)[C@H](CC(=O)O)NC(=O)[C@H](Cc2ccc(O)cc2)NC(=O)[C@H](CN)NC(=O)CSC[C@@H](C(=O)N[C@@H](C)C(N)=O)NC(=O)[C@H]([C@@H](C)O)NC(=O)[C@H](C(C)C)NC1=O [Compound 1345] ({CH2CO}-[Dap]YDWV[Bip][Cit][NMeA][dL][Dab]LVTCA-NH2; thioether N-14)
0.07 µM | CC(C)C[C@@H]1NC(=O)[C@H](CCN)NC(=O)[C@@H](CC(C)C)NC(=O)[C@H](C)N(C)C(=O)[C@H](CCCNC(N)=O)NC(=O)[C@H](Cc2ccc(-c3ccccc3)cc2)NC(=O)[C@H](C(C)C)NC(=O)[C@H](Cc2c[nH]c3ccccc23)NC(=O)[C@H](CC(=O)O)NC(=O)[C@H](Cc2ccc(O)cc2)NC(=O)[C@H](CCN)NC(=O)CSC[C@@H](C(=O)N[C@@H](C)C(N)=O)NC(=O)[C@H]([C@@H](C)O)NC(=O)[C@H](C(C)C)NC1=O [Compound 1346] ({CH2CO}-[Dab]YDWV[Bip][Cit][NMeA][dL][Dab]LVTCA-NH2; thioether N-14)
0.03 µM | CC(C)C[C@@H]1NC(=O)[C@H](CCN)NC(=O)[C@@H](CC(C)C)NC(=O)[C@H](C)N(C)C(=O)[C@H](CCCNC(N)=O)NC(=O)[C@H](Cc2ccc(-c3ccccc3)cc2)NC(=O)[C@H](C(C)C)NC(=O)[C@H](Cc2c[nH]c3ccccc23)NC(=O)[C@H](CC(=O)O)NC(=O)[C@H](Cc2ccc(O)cc2)NC(=O)[C@H](CCCN)NC(=O)CSC[C@@H](C(=O)N[C@@H](C)C(N)=O)NC(=O)[C@H]([C@@H](C)O)NC(=O)[C@H](C(C)C)NC1=O [Compound 1347] ({CH2CO}-[Orn]YDWV[Bip][Cit][NMeA][dL][Dab]LVTCA-NH2; thioether N-14)
0.03 µM | CC(C)C[C@@H]1NC(=O)[C@H](CCN)NC(=O)[C@@H](CC(C)C)NC(=O)[C@H](C)N(C)C(=O)[C@H](CCCNC(=N)N)NC(=O)[C@H](Cc2ccc(-c3ccccc3)cc2)NC(=O)[C@H](C(C)C)NC(=O)[C@H](Cc2c[nH]c3ccccc23)NC(=O)[C@H](CC(=O)O)NC(=O)[C@H](Cc2ccc(O)cc2)NC(=O)[C@H](CN)NC(=O)CSC[C@@H](C(=O)N[C@@H](C)C(N)=O)NC(=O)[C@H]([C@@H](C)O)NC(=O)[C@H](C(C)C)NC1=O [Compound 1350] ({CH2CO}-[Dap]YDWV[Bip]R[NMeA][dL][Dab]LVTCA-NH2; thioether N-14)
0.05 µM | CC(C)C[C@@H]1NC(=O)[C@H](CCN)NC(=O)[C@@H](CC(C)C)NC(=O)[C@H](C)N(C)C(=O)[C@H](CCCNC(N)=O)NC(=O)[C@H](Cc2ccc(-c3ccccc3)cc2)NC(=O)[C@H](C(C)C)NC(=O)[C@H](Cc2c[nH]c3ccccc23)NC(=O)[C@H](CC(=O)O)NC(=O)[C@H](Cc2ccc(O)cc2)NC(=O)[C@H](CCCNC(=N)N)NC(=O)CSC[C@@H](C(=O)N[C@@H](C)C(N)=O)NC(=O)[C@H]([C@@H](C)O)NC(=O)[C@H](C(C)C)NC1=O [Compound 1351] ({CH2CO}-RYDWV[Bip][Cit][NMeA][dL][Dab]LVTCA-NH2; thioether N-14)
0.01 µM | CC(C)C[C@@H]1NC(=O)[C@H](CCN)NC(=O)[C@@H](CC(C)C)NC(=O)[C@H](C)N(C)C(=O)[C@H](CCCNC(=N)N)NC(=O)[C@H](Cc2ccc(-c3ccccc3)cc2)NC(=O)[C@H](C(C)C)NC(=O)[C@H](Cc2c[nH]c3ccccc23)NC(=O)[C@H](CC(=O)O)NC(=O)[C@H](CCc2ccncc2)NC(=O)[C@H](CC(N)=O)NC(=O)CSC[C@@H](C(=O)N[C@@H](C)C(N)=O)NC(=O)[C@H]([C@@H](C)O)NC(=O)[C@H](C(C)C)NC1=O [Compound 1352] ({CH2CO}-N[h4Pal]DWV[Bip]R[NMeA][dL][Dab]LVTCA-NH2; thioether N-14)
0.03 µM | CC(C)C[C@@H]1NC(=O)[C@H](CCN)NC(=O)[C@@H](CC(C)C)NC(=O)[C@H](C)N(C)C(=O)[C@H](CCCNC(=N)N)NC(=O)[C@H](Cc2ccc(-c3ccccc3)cc2)NC(=O)[C@H](C(C)C)NC(=O)[C@H](Cc2c[nH]c3ccccc23)NC(=O)[C@H](CC(=O)O)NC(=O)[C@H](CCc2ccccc2)NC(=O)[C@H](CC(N)=O)NC(=O)CSC[C@@H](C(=O)N[C@@H](C)C(N)=O)NC(=O)[C@H]([C@@H](C)O)NC(=O)[C@H](C(C)C)NC1=O [Compound 1353] ({CH2CO}-N[hPhe]DWV[Bip]R[NMeA][dL][Dab]LVTCA-NH2; thioether N-14)
0.02 µM | CC(C)C[C@@H]1NC(=O)[C@H](CCN)NC(=O)[C@@H](CC(C)C)NC(=O)[C@H](C)N(C)C(=O)[C@H](CCCNC(=N)N)NC(=O)[C@H](Cc2ccc(-c3ccccc3)cc2)NC(=O)[C@H](C(C)C)NC(=O)[C@H](Cc2c[nH]c3ccccc23)NC(=O)[C@H](CC(=O)O)NC(=O)[C@H](CCc2ccc(O)cc2)NC(=O)[C@H](CC(N)=O)NC(=O)CSC[C@@H](C(=O)N[C@@H](C)C(N)=O)NC(=O)[C@H]([C@@H](C)O)NC(=O)[C@H](C(C)C)NC1=O [Compound 1354] ({CH2CO}-N[hTyr]DWV[Bip]R[NMeA][dL][Dab]LVTCA-NH2; thioether N-14)
0.13 µM | CC(C)C[C@@H]1NC(=O)[C@H](CCN)NC(=O)[C@@H](CC(C)C)NC(=O)[C@H](C)N(C)C(=O)[C@H](CCCNC(=N)N)NC(=O)[C@H](Cc2ccc(-c3ccccc3)cc2)NC(=O)[C@H](C(C)C)NC(=O)[C@H](Cc2c[nH]c3ccccc23)NC(=O)[C@H](CC(=O)O)NC(=O)[C@H](Cc2cccc(O)c2)NC(=O)[C@H](CC(N)=O)NC(=O)CSC[C@@H](C(=O)N[C@@H](C)C(N)=O)NC(=O)[C@H]([C@@H](C)O)NC(=O)[C@H](C(C)C)NC1=O [Compound 1355] ({CH2CO}-N[mTyr]DWV[Bip]R[NMeA][dL][Dab]LVTCA-NH2; thioether N-14)

SMILES | IC50
CC(C)C[C@@H]1NC(=O)[C@H](CCN)NC(=O)[C@@H](CC(C)C)NC(=O)[C@H](C)N(C)C(=O)[C@H](CCCNC(N)=O)NC(=O)[C@H](Cc2ccc(-c3ccccc3)cc2)NC(=O)[C@H](C(C)C)NC(=O)[C@H](Cc2c[nH]c3ccccc23)NC(=O)[C@H](CC(=O)O)NC(=O)[C@H](Cc2ccc(O)cc2)NC(=O)[C@H](CCCCN)NC(=O)CSC[C@@H](C(=O)N[C@@H](C)C(N)=O)NC(=O)[C@H]([C@@H](C)O)NC(=O)[C@H](C(C)C)NC1=O [Compound 1348] ({CH2CO}-KYDWV[Bip][Cit][NMeA][dL][Dab]LVTCA-NH2; thioether N-14) | 0.05 µM
CC(C)C[C@@H]1NC(=O)[C@H](CCN)NC(=O)[C@@H](CC(C)C)NC(=O)[C@H](C)N(C)C(=O)[C@H](CCCNC(N)=O)NC(=O)[C@H](Cc2ccc(-c3ccccc3)cc2)NC(=O)[C@H](C(C)C)NC(=O)[C@H](Cc2c[nH]c3ccccc23)NC(=O)[C@H](CC(=O)O)NC(=O)[C@H](Cc2ccc(O)cc2)NC(=O)[C@H](CCCCNC(=N)N)NC(=O)CSC[C@@H](C(=O)N[C@@H](C)C(N)=O)NC(=O)[C@H]([C@@H](C)O)NC(=O)[C@H](C(C)C)NC1=O [Compound 1349] ({CH2CO}-[hArg]YDWV[Bip][Cit][NMeA][dL][Dab]LVTCA-NH2; thioether N-14) | 0.06 µM
